Laboratory results reported in patent US6558900B2, “Regulation of apoptosis and in vitro model for studies thereof” (Emory University, priority 1996, dated 2003).
Entries after “also recorded” stand apart in the source; their conditions may differ.

Test system: CPP32
Test: Assay for dATP-dependent activation of CPP32 protease (cleavage of in vitro translated 35S-labeled CPP32 in HeLa S-100)
Type: biochemical, hamster
Conditions: 1 mM nucleotide, 30° C., 1 hr
Procedure: The samples were subjected to SDS-PAGE and transferred to a nitrocellulose filter. The filter was exposed to film for 16 hours at room temperature. In FIG. 2B, a 50 μl aliquot of HeLa S-100 (250 μg) was incubated with each aliquot of 6 μl hamster liver nuclei at 37° C. for 2 hr in the presence of 1 mM indicated nucleotide. The DNA was isolated, analyzed by 2% agarose gel electrophoresis and visualized by ethidium bromide staining.
To test the nucleotide specificity for activation of CPP32 and DNA fragmentation, HeLa cell S-100 was incubated with in vitro translated, ^35S-labeled CPP32 in the presence of 1 mM of various nucleotides (FIG. 2A).
A PCR fragment encoding amino acids 29-277 of hamster CPP32 [Wang et al. (1996) supra] was cloned into NdeI and BamHI sites of pET 15b vector (Novagen, Madison, Wis.). The resulting fusion protein of six histidines with hamster CPP32 (amino acids 29-277) was translated in a TNT T7 transcription/translation kit (Promega, Madison, Wis.) in the presence of ^35S-methionine according to the manufacturer's instructions. The translated protein was passed through a 1 ml nickel affirmity column (Qiagen, Chatsworth, Calif.) equilibrated with buffer A. After washing the column with 10 ml of buffer A, the translated CPP32 was eluted with buffer A containing 250 mM imidazole. Human SREBP-2 was translated in a TNT SP6 transcription/translation kit as described [Wang et al. (1995) [Hua et al. (1993) Proc. Natl. Acad. Sci. USA 90, 11603-11607]. Full length human PARP cDNA [Chemey et al. (1987) Proc. Natl. Acad. Sci. USA 84, 8370-8374] was cloned into SmaI and EcoRI sites of pBK-CMV vector (Stratagene, La Jolla, Calif.) and translated in a TNT T7 transcription/translation kit [Promega, Madison, Wis.]. The translated SREBP-2 and PARP (200 μl each) were purified by passing each translation mixture through a 10-ml Sephadex G-25 gel-filtration column equilibrated with buffer A. The translated proteins contained within the exclusion volume of the column were collected.
CPP32 was translated and purified as described above. Aliquot of 3 μl of the in vitro translated CPP32 was incubated with the indicated protein fraction, nucleotides, and 1 mM additional MgCl2 at 30° C. for 1 hour in a final volume of 20 μl of buffer A. At the end of the incubation, 7 μl of 4×SDS sample buffer was added to each reaction. After boiling for 3 min, each sample was subjected to a 15% SDS-polyacrylamide gel electrophoresis (SDS-PAGE). The gel was transferred to a nitrocellulose filter which was subsequently exposed to a Kodak X-OMAT AR X-ray film (Eastman Kodak, Rochester, N.Y.) for 16 hr at room temperature.

Molecule | cleavage of 35S-labeled CPP32 (nucleotide specificity)
Nc1ncnc2c1ncn2[C@@H]1O[C@H](COP(=O)(O)OP(=O)(O)O)[C@@H](O)[C@H]1O [ADP] | did not replace dATP
Nc1ncnc2c1ncn2[C@@H]1O[C@H](COP(=O)(O)O)[C@@H](O)[C@H]1O [AMP] | did not replace dATP
Nc1ccn([C@@H]2O[C@H](COP(=O)(O)OP(=O)(O)OP(=O)(O)O)[C@@H](O)[C@H]2O)c(=O)n1 [CTP] | did not replace dATP
Nc1nc2c(ncn2[C@@H]2O[C@H](COP(=O)(O)OP(=O)(O)OP(=O)(O)O)[C@@H](O)[C@H]2O)c(=O)[nH]1 [GTP] | did not replace dATP
O=c1ccn([C@@H]2O[C@H](COP(=O)(O)OP(=O)(O)OP(=O)(O)O)[C@@H](O)[C@H]2O)c(=O)[nH]1 [UTP] | did not replace dATP
Nc1ncnc2c1ncn2[C@@H]1O[C@H](CO)[C@@H](O)[C@H]1O [adenosine] | did not replace dATP
Nc1ncnc2c1ncn2[C@H]1C[C@H](O)[C@@H](COP(=O)(O)OP(=O)(O)O)O1 [dADP] | Cleavage occurred; also recorded: can substitute for dATP
Nc1ncnc2c1ncn2[C@H]1C[C@H](O)[C@@H](COP(=O)(O)O)O1 [dAMP] | did not replace dATP
Nc1ccn([C@H]2C[C@H](O)[C@@H](COP(=O)(O)OP(=O)(O)OP(=O)(O)O)O2)c(=O)n1 [dCTP] | did not replace dATP
Nc1nc2c(ncn2[C@H]2C[C@H](O)[C@@H](COP(=O)(O)OP(=O)(O)OP(=O)(O)O)O2)c(=O)[nH]1 [dGTP] | did not replace dATP
Cc1cn([C@H]2C[C@H](O)[C@@H](COP(=O)(O)OP(=O)(O)OP(=O)(O)O)O2)c(=O)[nH]c1=O [dTTP] | did not replace dATP
Nc1ncnc2c1ncn2[C@H]1C[C@H](O)[C@@H](CO)O1 [deoxyadenosine] | did not replace dATP

Test system: CPP32
Test: Apaf-2 activity: recombining with phosphocellulose flow through fraction (Apaf-1) and 35S-labeled CPP32
Type: biochemical, human
Conditions: one unit = cleavage of 1% of the input substrate in 60 min
Procedure: FIG. 3 illustrates fractionation and reconstitution of dATP-dependent activation of CPP32 by phosphocellulose chromatography. HeLa cell S-100 was subjected to phosphocellulose chromatography and the column flow through and bound material were collected as described in the Examples. Aliquots (10 μl) of HeLa S-100 (50 μg) (lanes 1 and 2), phosphocellulose flow through fraction (PC-FT) (lanes 3 and 4), phosphocellulose bound fraction (PC-B) (lanes 5 and 6), and the mixture of phosphocellulose flow through and bound material (lanes 7 and 8) were incubated with aliquots of 3 μl in vitro translated, ^35S-labeled CPP32 at 30° C. for 1 hr in the absence (lanes 1,3,5,7) or presence (lanes 2,4,6,8) of 1 mM dATP. The samples were subjected to SDS-PAGE, transferred to a nitrocellulose filter, and the filter was exposed to film for 16 hours at room temperature.
The Apaf-2 activity that bound to the phosphocellulose column was purified through the Mono S column as described in Example 7. […] In FIG. 4B, aliquots (30 μl) of the Mono-S fractions were subjected to 15% SDS-PAGE and the proteins were visualized by silver staining.
Aliquots of 0.2 μg of Apaf-2 purified through the Mono S column (lanes 1, 2), cytochrome c from bovine heart (lanes 3, 4), and rat liver (lanes 5, 6) were incubated with aliquots of 10 μl phosphocellulose flowthrough fraction and 3 μl in vitro translated, 35S-labeled CPP32 at 30° C. for 1 hr in a final volume of 20 μl buffer A in the absence (lanes 1,3,5) or presence of (lanes 2, 4, 6) 1 mM dATP. Samples were subjected to SDS-PAGE and transferred to a nitrocellulose filter which was then exposed to a film for 16 hr at room temperature.
To isolate the protein(s) required for the activation of CPP32, HeLa S-100 was loaded onto a phosphocellulose column, and the flow-through and bound fractions were collected. […] When the flowthrough and bound fractions were mixed, CPP32-activating activity was restored (lanes 7-8). […] The factor(s) that flow through the phosphocellulose column are designated apoptotic protease activating factor-1 (Apaf-1) and the factor that bound to the column is designated apoptotic protease activating factor-2 (Apaf-2). It is understood that “Apaf-1” may represent more than one protein or it may represent a combination of protein(s) and other factors.
Apaf-2 activity was assayed by recombining with Apaf-1 after purification by the following steps. First, the Apaf-2 fraction was subjected to 50% ammonium sulfate precipitation. All of the activity remained in the supernatant while most of the protein precipitated (Table I). The supernatant was loaded onto a phenyl-sepharose (hydrophobic interaction) column and the activity was eluted with 1 M ammonium sulfate. The eluate was passed through a gel filtration column; active fractions were subjected to sequential Mono Q (anion exchange) and Mono S (cation exchange) chromatography. The Apaf-2 activity flowed through the Mono Q column, and the flow through was directly loaded onto the Mono S column. Bound Apaf-2 activity was then eluted with a 100-300 mM NaCl linear salt gradient. The fractions from the Mono S column were collected and assayed. […] The active fractions were analyzed by SDS-PAGE (FIG. 4B). A protein of apparent molecular mass of 15 kDa was co-eluted with the activity. No other proteins were detected by silver staining in the active Apaf-2 fractions.
CPP32 was translated and purified as described above. […]

Molecule | Specific Activity | Total Activity
Mono Q/Mono-S: Apaf-2 purification step 6: Apaf-2 purified through the Mono S column | 263150 units/mg | 20000 unit
